Assay results: US10842801B2, “Optimizing mifepristone absorption” (Corcept Therapeutics, Inc., priority 2011, dated 2020)
Read-outs that look alike come from different tables or passages of the source.

Key:
[1] = Plasma drug concentration in different patients given the same dose of mifepristone; assay type: in vivo, human
[2] = Food effect studies: pharmacokinetics of mifepristone under fasting and fed conditions; assay type: in vivo, human; settings: for AUC(0-inf) / Cmax / AUC(0-t): human, plasma, oral; for AUC(0-inf): read-out: AUCinf Geo Mean; for Cmax: read-out: Cmax Geo Mean; for AUC(0-t): read-out: AUC0-24 Geo Mean
Procedure: Blood is collected from a patient in a vacutainer containing sodium heparin. The blood is centrifuged and the resulting plasma frozen at an appropriate temperature until assay. In some embodiments, the temperature is about -70° C. In other embodiments, other blood components can be collected and stored. Prior to analysis, the plasma is thawed and a fraction of the plasma is mixed with an internal standard in a solvent such as acetonitrile, to obtain a fixed concentration of the standard. In some embodiments, the internal standard can be mifepristone-d4. […] Base is then added to the sample solution. The base can be any amine or ammonium base, such as ammonium hydroxide. […] Solvent is then added to the solution and the mifepristone (along with the internal standard) are extracted from the plasma. […] Following separation and concentration of the organic layer, the sample is reconstituted in a solvent mixture comprising water, acetonitrile and formic acid. The ratio of the solvent components can vary. In some embodiments, the solvent mixture is water:acetonitrile:formic acid (75:25:0.1, v/v/v). […] The sample can then be analyzed by reverse-phase high pressure liquid chromatography (HPLC). In some embodiments, the reverse-phase HPLC is performed using a water:acetonitrile:formic acid (60:40:0.1) mobile phase (isocratic) at a flow rate of 0.3 mL/min. […] The reverse-phase HPLC column can be a phenyl column maintained at 50° C. […] Following elution, the mobile phase can be nebulized using heated nitrogen in a Z-spray source/interface and the ionized compounds detected using a tandem quadrupole mass spectrometer. Mifepristone (molecular weight of 430 g/mol) can be detected at m/z 372.30. The internal standard mifepristone-d4 can be detected at m/z 376.30. The ratio of the mifepristone peak height to the peak height for the internal standard can then be calculated. The plasma concentration of mifepristone is then calculated by comparing the experimental ratio to a standard curve of mifepristone:mifepristone-d4 peak height ratio v. mifepristone concentration. […] In all studies, healthy adults were randomized to a sequence of administration of mifepristone drug product under fasting and fed conditions. […] The test group was comprised of 10 healthy adult subjects who were randomized to receive mifepristone at 600 mg/day for up to 14 days in Cohort 3 of Study CORT-108297-102. For this comparison the PK data after 7 days of dosing were used. […] The meal was given every day at approximately 30 min prior to receiving mifepristone, which was dosed as two 300 mg tablets once daily.

[3] = 600 mg single dose, Fed (50% fat) vs Fast, Study 12
[4] = 600 mg/day for 7 days following a breakfast of 34% fat, Day 7
[5] = 600 mg/day x 7 days, Fed (34% fat) vs Fast, C3
[6] = 1200 mg single dose, Fed (50% fat) vs Fast, Study 20
[7] = 1200 mg/day x 7 days, Fed (34% fat) vs Fast, Study 27
[8] = 1200 mg/day, high fat (50%) meal on day 8 after 7 days with typical fat meals
[9] = 600 mg, 600 mg single dose, Fast, healthy adults, Study 12
[10] = 600 mg, 600 mg single dose, Fed 50% fat, healthy adults, Study 12
[11] = 600 mg/day, 600 mg/day x 7 days, Fast, healthy adults, historical Studies C-1073-05 and C-1073-300 Part II (reference for C3)
[12] = 600 mg/day, 600 mg/day x 7 days, Fed 34% fat, healthy adults, Cohort 3 of CORT-108297-102
[13] = 1200 mg, 1200 mg single dose, Fast, healthy adults, Study 20
[14] = 1200 mg, 1200 mg single dose, Fed 50% fat, healthy adults, Study 20
[15] = 1200 mg/day, 1200 mg/day x 7 days, Fed 34% fat, healthy adults, Study 27

CC#C[C@]1(O)CC[C@H]2[C@@H]3CCC4=CC(=O)CCC4=C3[C@@H](c3ccc(N(C)C)cc3)C[C@@]21C [Mifepristone, 17-beta-hydroxy-11-beta-(4-dimethyl-aminophenyl)-17-alpha-(1-propynyl)-estra-4,9-dien-3-one]
difference in plasma drug concentration from one patient to another [1]: ≤ 800% | AUCinf Ratio of Geometric Means [2, 3]: 1.29 | Cmax Ratio of Geometric Means [2, 3]: 1.19 | increase in AUC0-24 as compared to the same dose in the fasted state [2, 4]: 44% | increase in Cmax as compared to the same dose in the fasted state [2, 4]: 34% | AUC0-24 Ratio of Geometric Means [2, 5]: 1.44 | Cmax Ratio of Geometric Means [2, 5]: 1.34 | AUCinf Ratio of Geometric Means [2, 6]: 1.42 | Cmax Ratio of Geometric Means [2, 6]: 1.30 | mean increase in mifepristone exposure relative to the fasted state ([2]; 1200 mg/day for 7 days with typical fat meals vs 7 days fasted): 65% | Cmax Geo Mean ([2]; 1200 mg/day x 7 days, Fast, healthy adults, Study 27): 3223 ng/mL | AUC0-24 Ratio of Geometric Means [2, 7]: 1.65 | Cmax Ratio of Geometric Means [2, 7]: 1.56 | effect on Cmax of switching to a high fat meal [2, 8]: little or no effect | effect on exposure of switching to a high fat meal [2, 8]: little or no effect | AUC(0-inf) [2, 9]: 104000 ng·h/mL | Cmax [2, 9]: 2310 ng/mL | AUC(0-inf) [2, 10]: 134000 ng·h/mL | Cmax [2, 10]: 2740 ng/mL | AUC(0-t) [2, 11]: 43600 ng·h/mL | Cmax [2, 11]: 3040 ng/mL | AUC(0-t) [2, 12]: 62600 ng·h/mL | Cmax [2, 12]: 4070 ng/mL | AUC(0-inf) [2, 13]: 134000 ng·h/mL | Cmax [2, 13]: 2830 ng/mL | AUC(0-inf) [2, 14]: 191000 ng·h/mL | Cmax [2, 14]: 3660 ng/mL | AUC(0-t) ([2]; 1200 mg/day, 1200 mg/day x 7 days, Fast, healthy adults, Study 27): 44200 ng·h/mL | AUC(0-t) [2, 15]: 72800 ng·h/mL | Cmax [2, 15]: 5040 ng/mL | dose proportionality of exposure and Cmax ([2]; multiple dosing, doses above 600 mg, fasted): strong lack of dose proportionality
